This note sets out measurements from patent US20220396569A1 (Carmot Therapeutics, Inc., priority 2021, published 2022).

This assay deals with T1, human GLP-1 receptor (Homo sapiens, UniProt P43220).
T1 construct: expressed in transfected cells
T1 sequence (P43220 24-463): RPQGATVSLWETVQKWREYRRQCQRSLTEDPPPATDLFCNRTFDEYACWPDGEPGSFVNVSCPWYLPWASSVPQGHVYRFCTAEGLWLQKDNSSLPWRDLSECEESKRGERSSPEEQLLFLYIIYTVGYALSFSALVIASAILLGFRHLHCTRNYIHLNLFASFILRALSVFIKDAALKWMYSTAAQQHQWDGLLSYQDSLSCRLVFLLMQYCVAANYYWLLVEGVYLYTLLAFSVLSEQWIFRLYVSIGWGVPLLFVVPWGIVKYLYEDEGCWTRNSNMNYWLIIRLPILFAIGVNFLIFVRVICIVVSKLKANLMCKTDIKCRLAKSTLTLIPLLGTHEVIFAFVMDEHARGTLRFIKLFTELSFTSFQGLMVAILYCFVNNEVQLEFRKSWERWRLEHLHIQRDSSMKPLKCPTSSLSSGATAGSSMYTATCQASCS
In words: GLP-1R cAMP Assay (HitHunter cAMP accumulation). The conditions noted are these: cAMP accumulation, CHO cells stably overexpressing human GLP-1 receptor, 30 min treatment; read-out: EC50. The format is cell-based. The essentials:
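CHO cells stably expressing human GLP-1R, 10,000 cells/well in HBSS with 10 mM HEPES and 625 μM IBMX, were mixed with anti-cAMP antibody reagent. Compound was applied as a 20-point dose response in triplicate for 30 min. After lysis and overnight detection, luminescence was read and dose-response curves analysed.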
Consider `N#Cc1ccc(OCc2nc(C3=CCN(Cc4nc5ccc(C(=O)O)cc5n4CC4(CC(N)=O)CC4)C3)ccc2F)c(F)c1` [Compound 423, 1-{[1-(carbamoylmethyl)cyclopropyl]methyl}-2-[(3-{6-[(4-cyano-2-fluorophenoxy)methyl]-5-fluoropyridin-2-yl}-2,5-dihydro-1H-pyrrol-1-yl)methyl]-1H-1,3-benzodiazole-6-carboxylic acid], for which the EC50 was in the range of 50 to 500 nM.
Turning to `CCn1cncc1Cn1c(CN2CC(Oc3ccnc(COc4ccc(Cl)cc4C#N)c3)C2)nc2ccc(C(=O)O)cc21` [Compound 211, 2-{[3-({2-[(4-chloro-2-cyanophenoxy)methyl]pyridin-4-yl}oxy)azetidin-1-yl]methyl}-1-[(1-ethyl-1H-imidazol-5-yl)methyl]-1H-1,3-benzodiazole-6-carboxylic acid], the EC50 was under 50 nM.
For the compound `O=C(O)c1cc(F)c2nc(CN3CC[C@H](c4ccnc(COc5ccc(Cl)cc5F)c4)C3)n(C[C@@H]3CCO3)c2c1` (single isomer, unassigned) [Example 427], the EC50 is under 50 nM.
Take `N#Cc1ccc(OCc2cc([C@H]3CCN(Cc4nc5c(F)cc(C(=O)O)cc5n4C[C@@H]4CCO4)C3)ccc2F)c(F)c1` (single isomer, unassigned) [Example 449]: the EC50 was under 50 nM.
In the case of `CCn1cncc1Cn1c(CN2C[C@@H](Oc3cccc(COc4ccc(Cl)cc4Cl)c3)[C@@H]2C)nc2ccc(C(=O)O)cc21` [Compound 234, 2-{[(2S,3R)-3-{3-[(2,4-dichlorophenoxy)methyl]phenoxy}-2-methylazetidin-1-yl]methyl}-1-[(1-ethyl-1H-imidazol-5-yl)methyl]-1H-1,3-benzodiazole-6-carboxylic acid], the EC50 is under 50 nM.
As for `CCn1cncc1Cn1c(CN2CC(=Cc3cccc(COc4ccc(Cl)cc4Cl)c3)C2)nc2ccc(C(=O)O)cc21` [Compound 196], the figure is under 50 nM; as for `CCn1cncc1Cn1c(CN2CCC(Cc3cccc4c3O[C@@](C)(c3ccc(Cl)cc3F)O4)CC2)nc2ccc(C(=O)O)cc21` (single isomer, unassigned) [Compound 223], under 50 nM; as for `O=C(O)c1ccc2nc(CN3CC=C(c4cc(COc5ccc(Cl)cc5F)ccc4F)C3)n(C[C@@H]3CCO3)c2c1` [Compound 417, 2-[(3-{5-[(4-chloro-2-fluorophenoxy)methyl]-2-fluorophenyl}-2,5-dihydro-1H-pyrrol-1-yl)methyl]-1-{[(2S)-oxetan-2-yl]methyl}-1H-1,3-benzodiazole-6-carboxylic acid], under 50 nM.
Regarding `N#Cc1ccc(OCc2nc(C34CC3CN(Cc3nc5c(F)cc(C(=O)O)cc5n3C[C@@H]3CCO3)C4)ccc2F)c(Cl)c1` (stereo partly drawn) [Compound 525, 2-[(1-{6-[(2-chloro-4-cyanophenoxy)methyl]-5-fluoropyridin-2-yl}-3-azabicyclo[3.1.0]hexan-3-yl)methyl]-4-fluoro-1-{[(2S)-oxetan-2-yl]methyl}-1H-1,3-benzodiazole-6-carboxylic acid], the EC50 is under 50 nM.
On to `N#Cc1ccc(OCc2cccc([C@H]3CCN(Cc4nc5c(F)cc(C(=O)O)cc5n4C[C@@H]4CCO4)C3)c2)c(F)c1` [Compound 444, 2-{[(3R)-3-{3-[(4-cyano-2-fluorophenoxy)methyl]phenyl}pyrrolidin-1-yl]methyl}-4-fluoro-1-{[(2S)-oxetan-2-yl]methyl}-1H-1,3-benzodiazole-6-carboxylic acid], for which the EC50 was over 500 nM.
With `N#CCC1(Cn2c(CN3CC[C@H](c4ccnc(COc5ccc(Cl)cc5F)c4)C3)nc3ccc(C(=O)O)cc32)CC1` [Compound 433, 2-{[(3R)-3-{2-[(4-chloro-2-fluorophenoxy)methyl]pyridin-4-yl}pyrrolidin-1-yl]methyl}-1-{[1-(cyanomethyl)cyclopropyl]methyl}-1H-1,3-benzodiazole-6-carboxylic acid] the figure was 50 to 500 nM.
